Data reported in US7355074B2, “Compounds having aromatic rings and side-chain amide-functionality and a method for transporting monovalent anions across biological membranes using the same” (The University of Maryland, priority 2003, dated 2008).
Marks after values point to notes of the source that are not given here.

Columns and labels:
[1] = pH-assisted fluorimetric transport assay with calixarene amides (HPTS-loaded liposomes); format: biochemical; conditions: for ion transport in sulfate buffers: sodium sulfate-filled LUVs in isotonic solution, up to 50 μM
Procedure: The ability of 1 and 2 to mediate ion flux across a lipid bilayer was studied fluorimetrically. A solution of 1 or 2 was added to a suspension of EYPC large unilamellar vesicles (LUVs) containing the pH-sensitive dye pyranine. An NaOH solution was added to the extravesicular buffer to create a gradient of approximately one pH unit. The resulting electrostatic potential, caused by proton efflux from the liposomes, can be compensated by cation influx or anion efflux, as mediated by the exogenous ligand. Ion transport across the membrane was signaled by the increase in relative fluorescence that accompanied the rise in intravesicular pH.
Liposome Preparation. EYPC HPTS-Containing LUVs, egg yolk 1-α-phosphatidylcholine (EYPC, 60 mg, […]) was dissolved in a CHCl3MeOH mixture, the solution was evaporated under reduced pressure, and the resulting thin film was dried under high vacuum for 2 h. The lipid film was hydrated in 1.2 mL of phosphate buffer (10 mM sodium phosphage, pH=6.4, 75-100 mM MX, M=Na^+, K^+, Cs^+, X=[…], SO4^2−) containing 10 μM HPTS (pyranine 8-hydroxypyrene-1,3,6-trisulfonic acid trisodium salt) for 2 h. The LUV suspension (1 mL) was submitted to high-pressure extrusion at room temperature (2) extrusions through a 0.1 μM polycarbonate membrane afforded LUVs with a diameter of 100 nm). The LUV suspension was separated from extravesicular dye by size exclusion chromatography (SEC) stationary phase: Sephadex G-10, mobile phase:phosphate buffer) and diluted with the same phosphate buffer to give a stock solution with a lipid concentration of 11 mM (assuming 100% of lipid was incorporated into liposomes).
Fluorimetric Transport Assays. pH-Assisted Transport Assays. Typically, 100 μL of HPTS-loaded vesicles (stock solution) was suspended in 1.85 mL of the corresponding buffer and placed into a fluorimetric cell. HPTS emission at 510 nm was monitored with excitation wavelengths at 403 and 460 nm simultaneously. During the experiment, 20 μL of a 0-10 mM THF solution of the compound of interest was added through an injection port, followed by injection of 21 μL of 0.5 M aqueous NaOH. Addition of the NaOH caused a pH increase of approximately 1 pH unit in the extravesicular buffer. Maximal changes in dye emission were obtained at the end of each experiment by lysis of the liposomes with detergent (40 μL of 5% aqueous Triton x100). The final transport trace was obtained as a ratio of the emission intensities monitored at 460 and 403 nm and normalized to 100% of transport.

[2] = pH-stat fluorescent transport assay with oligophenoxyacetamides (HPTS-loaded liposomes); format: biochemical
Procedure: FIGS. 1A and 1B are derived from of pH-stat fluorescent assays with oligophenoxyacetamide compounds 1-6 described herein. Suspensions of EYPC LUVs containing the pH sensitive dye pyranine (ex 405 nm and 460 nm em 510 nm) in a phosphate buffer were used (0.5 mM of lipid, 10 mM NanH3-nPO4 n=1, 2, pH 6.4 100 mM NaCl inside and outside) (A) illustrates initial pseudo-first order rate constants in the presence of 5 μm of ionophores 1-6 (1 mol % injection of 20 μl of 0.5 mM DMSO solution of 1-6 into 1.9 mL of vesicular suspension was followed by injection of 21 μl of 0.5 M NaOH and final lysis of liposomes with Triton X-100; (B) illustrates initial pseudo-first order rate constants assessed for various concentrations of oligomeric ionophores 2-6. The same experimental protocol as in (A) was used. Legend for traces denotes use of oligocompounds 2, 3, 4, 5, 6.
Liposome Preparation for Fluorimetric Assays. Egg yolk L-α-phosphatidylcholine (EYPC ethanol solution, […], 79 μmol) was dissolved in a CHCl3/MeOH mixture, the solution was evaporated under reduced pressure and the resulting thin film was dried under high vacuum for 2 h. The lipid film was hydrated in 1.2 mL of phosphate buffer (10 mM sodium phosphate, pH=6.4, 75-100 mM MnX, M=N^+, K^+, X=Cl^−, SO4^2−, n=1,2) containing 10 μM HPTS (pyranine, 8-hydroxypyrene-1,3,6-trisulfonic acid trisodium salt) for 40 min. During hydration, the suspension was submitted to 5 freeze-thaw cycle (liquid nitrogen, water at rt). The large multilamellar liposome suspension (1 mL) was submitted to high-pressure extrusion at rt (21 extrusions through a 0.1 μm polycarbonate membrane afforded a suspension of LUVs with an average diameter of 100 nm). The LUV suspension was separated from extravesicular dye by size exclusion chromatography (SEC) (stationary phase: Sephadex G-10, mobile phase: phosphate buffer) and diluted with the same phosphate buffer to give a stock solution with a lipid concentration of 11 mM (assuming 100% of lipid was incorporated into liposomes).
pH-state transport assays. Typically, 100 μL of HPTS-loaded vesicles (stock solution) was suspended in 1.9 mL of the corresponding buffer and placed into a fluorimetric cell. The emission of HPTS at 510 nm was monitored with excitation wavelengths at 403 and 460 nm simultaneously. During the experiment, 20 μL of a 0-10 mM DMSO solution of the compounds of interest was added (through an injection port), followed by injection of 21 μL of 0.5 M aqueous NaOH. […] Maximal possible changes in dye emission were obtained at the end of each experiment by lysis of the liposomes with detergent (40 μL of 5% aqueous Triton X100). The final transport trace was obtained as a ratio of the emission intensities monitored at 460 and 403 nm and normalized to 100% of transport. Pseudo-first order rate constants were calculated from slopes of the plot of In([H^+ins]−[H^+out]) versus time, here [H^+ins] and [H^+out] are the intravesicular and extravesicular proton concentrations, respectively. The [H^+out] was assumed to remain constant over the course of the experiment, while [H^+ins] values were calculated for each point from the HPTS emission intensities according to the calibration equation pH=1.1684·log(Io/Il)+6.9807, where Io is the emission intensity with excitation at 460 nm and Il is emission intensity with excitation at 403 nm. The calibration was performed by measuring the HPTS emission intensities and the pH values of a […] HPTS solution in 10 mM phosphate buffer containing 100 mM NaCl (see FIG. s3). The absolute values for rate constants varied depending on the age of the vesicular solution and the actual stock solution of liposomes used.

Row | SMILES | transport activity when buffer changed from NaCl to Na2SO4 [1] | Initial Pseudo-first Order Transport Rate Constants, Na2SO4 ([1]; 5 μM, 100 mM Na2SO4 inside pH 6.4 and outside pH 7.4, not corrected for unmediated exchange) | Initial Pseudo-first Order Transport Rate Constants, CsCl ([1]; 5 μM, 100 mM NaCl inside pH 6.4, 100 mM CsCl outside pH 7.4, not corrected for unmediated exchange) | Initial Pseudo-first Order Transport Rate Constants, KCl ([1]; 5 μM, 100 mM NaCl inside pH 6.4, 100 mM KCl outside pH 7.4, not corrected for unmediated exchange) | Initial Pseudo-first Order Transport Rate Constants, NaCl ([1]; 5 μM, 100 mM NaCl inside pH 6.4, 100 mM NaCl outside pH 7.4, not corrected for unmediated exchange) | cation selectivity of ion transport ([1]; buffers containing Na, K or Cs) | anion transport selectivity ([1]; chloride versus sulfate buffers) | transport activity ([1]; extravesicular Na, K or Cs chloride, ligand:lipid ratio of 1:100) | ion transport in sulfate buffers [1] | ion transport in sulfate buffers ([1]; listed as calix[4]arene tetrabutylamide) | relative transport activity within the series 1-6 ([2]; 100 mM NaCl inside and outside) | transport activity ([2]; 100 mM NaCl inside and outside, concentrations as low as 0.5 mol % (5 μm)) | transport activity in liposomes symmetrically loaded with sodium sulfate ([2]; 10 mol % (50 μm))
1 | CCCCNC(=O)COc1c2cccc1Cc1cccc(c1OCC(=O)NCCCC)Cc1cccc(c1OCC(=O)NCCCC)Cc1cccc(c1OCC(=O)NCCCC)C2 [calix[4]arene tetrabutylamide 2, Calix[4]arene tetrabutylamide] | essentially complete loss of transport activity | 1.1^b,d ×10^−3 s^−1 | 7.7^b,c ×10^−3 s^−1 | 6.4^b,c ×10^−3 s^−1 | 6.8^b,c ×10^−3 s^−1 | nonselective toward the cation | pronounced Cl^− over HSO4^− transport selectivity | rapid exchange of intra-and extravesicular electrolytes | not mediated | No significant transport |  |  | 
2 | CCCCNC(=O)COc1ccccc1Cc1cccc(Cc2ccccc2OCC(=O)NCCCC)c1OCC(=O)NCCCC [trimer 3, Tris-(N-butyl-2-phenoxyacetamide)] |  |  |  |  |  |  |  |  |  |  | generally the most active | rapid exchange between extra- and intravesicular electrolytes | no transport activity was detected
